From patent US20070161560A1, “Use of vanilloid 4 receptor and antagonists or agonists thereof for treating diseases associated with pain” (SmithKline Beecham plc, priority 2000, published 2007)

Assays:
Format in all cases: cell-based
[1] = target: human VR1 (Homo sapiens, UniProt Q8NER1); conditions: for pEC50 hVR1: increase of intracellular calcium, human VR1, mean ± s.e. mean, n = 3-5, IA = inactive; for activity at VR1: result in words
[2] = target: T1, human VR4 (Homo sapiens, UniProt Q9HBA0); assay: FLIPR cytoplasmic calcium (Fluo-3), HEK293 cells transfected with human VR4; conditions: for effect on intracellular calcium in HEK293-VR4 cells: result in words; for pEC50 hVR4: increase of intracellular calcium, mean ± s.e. mean, n = 3-5, IA = inactive; for effect on intracellular calcium in HEK293-VR4 cells / pEC50 hVR4: HEK293-VR4 cells
T1 construct: V5-His (vector-encoded); expressed in transfected cells; host or cells: HEK293
T1 sequence (Q9HBA0 whole entry): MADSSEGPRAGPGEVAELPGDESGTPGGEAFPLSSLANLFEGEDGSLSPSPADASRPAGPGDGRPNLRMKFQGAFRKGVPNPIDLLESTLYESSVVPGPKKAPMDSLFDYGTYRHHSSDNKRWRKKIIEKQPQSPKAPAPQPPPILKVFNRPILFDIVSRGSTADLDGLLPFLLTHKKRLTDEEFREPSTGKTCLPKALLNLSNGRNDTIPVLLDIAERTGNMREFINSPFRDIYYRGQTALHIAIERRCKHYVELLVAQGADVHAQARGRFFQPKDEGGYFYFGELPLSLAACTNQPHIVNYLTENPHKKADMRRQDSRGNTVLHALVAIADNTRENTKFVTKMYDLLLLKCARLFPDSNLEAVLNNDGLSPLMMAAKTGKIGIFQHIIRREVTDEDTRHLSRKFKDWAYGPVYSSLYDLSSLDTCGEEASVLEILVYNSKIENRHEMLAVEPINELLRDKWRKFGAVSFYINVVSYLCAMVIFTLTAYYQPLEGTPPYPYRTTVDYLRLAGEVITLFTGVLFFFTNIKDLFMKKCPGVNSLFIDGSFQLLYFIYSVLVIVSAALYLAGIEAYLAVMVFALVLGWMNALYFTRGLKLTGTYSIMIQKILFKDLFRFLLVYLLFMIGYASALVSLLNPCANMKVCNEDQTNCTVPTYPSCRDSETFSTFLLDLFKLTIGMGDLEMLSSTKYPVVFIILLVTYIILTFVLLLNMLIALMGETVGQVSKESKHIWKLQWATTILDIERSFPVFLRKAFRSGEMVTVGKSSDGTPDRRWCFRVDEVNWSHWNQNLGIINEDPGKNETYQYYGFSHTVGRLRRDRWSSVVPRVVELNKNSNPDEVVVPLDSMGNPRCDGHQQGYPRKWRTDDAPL
Description: (§1) The VR4 cDNA was inserted into the expression vector pcDNA3.1 V5-His (Invitrogen). Wildtype HEK293 cells, or HEK293 cells transfected with the human VR4:pcDNA3.1 V5-His construct, or mock transfected cells, or bovine chondrocytes, were seeded into 96-well microtitre plates at 25,000 cells/well and cultured overnight. The cells were then incubated with 4 microM Fluo-3 for 2 hrs at room temperature in the dark. Dye loaded cells were washed 4× with Tyrodes buffer: (NaCl, 145 mM; KCl, 2.5 mM; Hepes, 10 mM; Glucose, 10 mM; MgC12, 1.2 mM; CaCl2, 1.5 mM), which also contained 0.2% BSA but not probenecid. Agonists and antagonists were also prepared in Tyrodes buffer. Cells were preincubated for 30 mins with antagonist or buffer. Agonist addition and measurement of cytoplasmic calcium concentration was performed in the FLIPR (Smart et al., (2000) Br. J. Pharmacol. 129, 227-230).

[3] = system: HEK293 cells transfected with empty vector; assay: FLIPR cytoplasmic calcium (Fluo-3), HEK293 cells transfected with empty vector; conditions: result in words
Description: as §1

[4] = system: wild type HEK293 cells; assay: FLIPR cytoplasmic calcium (Fluo-3), wild type HEK293 cells; conditions: result in words
Description: as §1

[5] = system: VR4 endogenously expressed by chondrocytes; assay: FLIPR cytoplasmic calcium (Fluo-3), bovine articular chondrocytes; conditions: channel blocker against the 4α-PDD response
Description: as §1
The response was dependent upon extracellular calcium ions and was blocked by the channel blocker ruthenium red.

Chain of human VR1 (Q8NER1 whole entry): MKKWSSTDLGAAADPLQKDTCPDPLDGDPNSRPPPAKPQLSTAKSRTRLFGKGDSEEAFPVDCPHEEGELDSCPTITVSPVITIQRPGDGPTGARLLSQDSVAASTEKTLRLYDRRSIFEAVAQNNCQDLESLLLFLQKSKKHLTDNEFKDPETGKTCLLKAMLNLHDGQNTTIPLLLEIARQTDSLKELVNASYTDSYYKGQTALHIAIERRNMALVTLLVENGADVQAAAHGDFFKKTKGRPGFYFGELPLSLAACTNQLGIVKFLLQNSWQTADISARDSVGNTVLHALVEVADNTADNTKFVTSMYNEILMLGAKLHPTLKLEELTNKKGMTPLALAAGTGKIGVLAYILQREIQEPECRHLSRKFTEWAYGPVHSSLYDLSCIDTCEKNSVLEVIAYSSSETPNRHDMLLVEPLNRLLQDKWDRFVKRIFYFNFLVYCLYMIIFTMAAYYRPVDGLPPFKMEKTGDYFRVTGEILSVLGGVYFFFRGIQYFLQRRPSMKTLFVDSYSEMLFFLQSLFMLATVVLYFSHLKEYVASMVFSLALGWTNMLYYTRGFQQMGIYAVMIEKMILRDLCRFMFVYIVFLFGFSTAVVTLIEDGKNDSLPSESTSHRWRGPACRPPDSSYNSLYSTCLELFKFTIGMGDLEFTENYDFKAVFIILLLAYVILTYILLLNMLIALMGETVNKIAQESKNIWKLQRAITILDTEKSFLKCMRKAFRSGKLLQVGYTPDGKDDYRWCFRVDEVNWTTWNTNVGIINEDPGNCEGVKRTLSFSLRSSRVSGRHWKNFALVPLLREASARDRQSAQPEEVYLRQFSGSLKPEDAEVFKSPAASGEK

SMILES	pEC50 hVR1 [1]	effect on intracellular calcium in HEK293-VR4 cells [2]	selectivity VR4 over VR1 ([2]; conclusion from pEC50 at hVR4 and hVR1)	pEC50 hVR4 [2]	activity at VR1 [1]	effect on intracellular calcium in cells transfected with empty vector [3]	effect on intracellular calcium in wild type HEK293 cells [4]	block of the response to 4α-PDD in bovine articular chondrocytes [5]	Emax at VR1 ([1]; compared to capsaicin and RTX)
C=C(C)[C@]12C[C@@H](C)[C@@]34O[C@](Cc5ccccc5)(O[C@@H]1[C@@H]3C=C(COC(=O)Cc1ccc(O)c(OC)c1)C[C@]1(O)C(=O)C(C)=C[C@@H]41)O2 [RTX]	8.93 ± 0.20								
CCCCCCCCCC(=O)O[C@@H]1[C@@H](C)[C@@]2(O)[C@@H](C=C(CO)C[C@@]3(O)C(=O)C(C)=C[C@@H]23)[C@@H]2C(C)(C)[C@]12OC(=O)CCCCCCCCC [4αPDD, 4α-phorbol-12,13-didecanoate]		increased intracellular calcium	VR4 selective agonist	5.73 ± 0.06	inactive	without effect	without effect		
N.N.N.N.N.N.N.N.N.N.N.N.N.N.[Cl-].[Cl-].[Cl-].[Cl-].[Cl-].[Cl-].[O-2].[O-2].[Ru+3].[Ru+3].[Ru+4] [ruthenium red]								blocked	
CCCCCCCCCCCCCC(=O)O[C@@H]1[C@@H](C)[C@@]2(O)[C@@H](C=C(CO)C[C@]3(O)C(=O)C(C)=C[C@@H]23)[C@@H]2C(C)(C)[C@]12OC(C)=O [PMA, phorbol 12-myristate 13-acetate]	7.86 ± 0.06	increased intracellular calcium		6.64 ± 0.06	partial agonist	without effect	without effect		0.46
